Data from ChEMBL document CHEMBL5214915 (Eur J Med Chem, 2021).
In brackets after ≈: the same amount, converted by molar mass.

Tests used:
Type in all cases: functional
[1] = test system: Mycobacterium tuberculosis variant bovis; assay: Antibacterial activity against Mycobacterium bovis BCG incubated for 1 week in 7H9/ADC/Tw medium in presence of 0.5 mM chorismate
[2] = test system: Mycobacterium tuberculosis variant bovis; assay: Antibacterial activity against Mycobacterium bovis BCG incubated for 1 week in 7H9/ADC/Tw medium in presence of 0.1 mM indole
[3] = test system: Mycobacterium tuberculosis variant bovis; assay: Antibacterial activity against Mycobacterium bovis BCG incubated for 1 week in 7H9/ADC/Tw medium in presence of 0.1 mM anthranilate
[4] = test system: Mycobacterium tuberculosis variant bovis; assay: Antibacterial activity against Mycobacterium bovis BCG incubated for 1 week in 7H9/ADC/Tw medium in presence of 0.1 mM chorismate
[5] = test system: Mycobacterium tuberculosis variant bovis; assay: Antibacterial activity against Mycobacterium bovis BCG incubated for 1 week in 7H9/ADC/Tw medium
[6] = test system: Mycobacterium tuberculosis variant bovis; assay: Antibacterial activity against Mycobacterium bovis BCG incubated for 1 week in 7H9/ADC/Tw medium in presence of 0.1 mM Trp
[7] = Mycobacterium tuberculosis variant bovis, BCG, 168 h, read-out: MIC

| Structure (SMILES) | MIC [1, 7] [µM] | MIC [2, 7] [µM] | MIC [3, 7] [µM] | MIC [4, 7] [µM] | MIC [5, 7] [µM] | MIC [6, 7] [µM] | MIC [1] [µM] | MIC [2] [µM] | MIC [3] [µM] | MIC [4] [µM] | MIC [5] [µM] | MIC [6] [µM] |
| --- | --- | --- | --- | --- | --- | --- | --- | --- | --- | --- | --- | --- |
| Nc1cccc(F)c1C(=O)NNc1c(Cl)cc(Cl)cc1Cl | 45.9 | > 50 | > 50 | 45.9 | 22.9 (≈ 7.98 µg/mL) | > 50 |  |  |  |  |  |  |
| Cl.Nc1cccc(F)c1C(=O)NNc1ccccc1 |  |  |  |  |  |  | 14.2 | >50 | >50 | 7.1 | 3.5 | >50 |
| Nc1cccc(F)c1C(=O)NNc1ccccc1 | 8.15 | > 50 | > 50 | 8.15 | 2 (≈ 0.491 µg/mL) | > 50 |  |  |  |  |  |  |
| Nc1cccc(F)c1C(=O)O | 6.4 | > 50 | > 50 | 6.4 | 6.4 (≈ 0.993 µg/mL) | > 50 |  |  |  |  |  |  |
